One assay has as its target T1, HER2 kinase (Homo sapiens, UniProt P04626).
T1 construct: purchased Carna Biosciences 08-016
The assay is described as follows: HER2 kinase assay (ULight/PT66 TR-FRET). It counts as biochemical. An outline of the steps:
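HER2 kinase preincubated 5 min with compounds (11-point 3-fold series, duplicates), then reacted 120 min at room temperature with ATP and ULight-poly GT peptide, each prepared at 4× working concentration (40 μM ATP, 400 nM substrate, 40 nM kinase). PT66 antibody added for 60 min, TR-FRET read; IC50 from inhibition curves.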

The target of assay [1] is Ba/F3 EGFR D770_N771insSVD cells (Homo sapiens, UniProt P00533, DUP768-770, cells depend on it). The assay is described as follows: Inhibition of cell proliferation, CTG method, Ba/F3 EGFR D770_N771insSVD. It counts as cell-based. To be noted: 72 hours, read-out: Ba/F3 EGFR D770_N771insSVD IC50. The text has this: The present application examined the in vitro anti-proliferative activity of the compounds of the present disclosure against in vitro cultured BT474, NCI-N87, Ba/F3-EGFR-VIII and Ba/F3 HER2 A775_G776insYVMA and Ba/F3 EGFR D770_N771insSVD cell lines by CTG method.
Reagents and consumables: RPMI1640 (ThermoFisher, Cat. No. C11875500BT); fetal bovine serum (Hyclone, Cat. No. SV30087.03); 0.25% trypsin-EDTA (ThermoFisher, Cat. No. 25200-072); penicillin-streptomycin (Hyclone, Cat. No. SV30010); DMSO (Amresco, Cat. No. 0231-500ML); CTG assay kit (Promega, Cat. No. G924C); 96-well plate (Corning, Cat. No. 3603); multifunctional plate reader (Perkin Elmer, Cat. No. Envision)
Cell lines: BT474 (from the cell bank of Chinese Academy of Sciences), NCI-N87 (from ATCC), Ba/F3-EGFR-VIII, Ba/F3 HER2 A775_G776insYVMA and Ba/F3 EGFR D770_N771insSVD (all from KYinno Biotechnology (Beijing) Co., Ltd.); all of the above cells were cultured with RPMI1640 medium containing 10% fetal bovine serum, 100 U/mL penicillin, and 100 μg/mL streptomycin in the culture process.
1. The assay compound was dissolved with DMSO to form a stock solution and a gradient dilution was performed, followed by dilution with the corresponding medium to obtain a solution with 5-fold working concentration.
2. Cells in logarithmic growth phase were adjusted to specific cell densities by dilution with culture medium, and 80 μL of cell suspension was added to a 96-well plate, such that plating densities of cells of BT474, NCI-N87, Ba/F3-EGFR-VIII, Ba/F3 HER2 A775_G776insYVMA and Ba/F3 EGFR D770_N771insSVD were all 3000 cells/well. The cells of Ba/F3-EGFR-VIII, Ba/F3 HER2 A775_G776insYVMA and Ba/F3 EGFR D770_N771insSVD were used directly in the next step (treatment with compound), whereas the BT474 and NCI-N87 needed to be cultured overnight in a 37° C., 5% carbon dioxide gas incubator to adhere to the wall, and then treated with compounds.
3. 20 μL of compound solution was added to each well of the 96-well plate that had been inoculated with cells. The highest concentration of the assayed compound was 10 μM, 4-fold serial dilution, a total of 9 concentrations, and duplicate wells. A control group without compound was also set up.
4. The cells were cultured for another 72 hours, and then cell viability was detected by CTG assay kit. Signal values were read with a multifunctional plate reader (Perkin Elmer). GraphPad Prism software was used to create a dose-response curve and IC50 was calculated.

The target in a further assay is EGFR^WT kinase (Homo sapiens, UniProt P00533). The assay is described as follows: EGFR^WT kinase assay (ULight/PT66 TR-FRET). It counts as biochemical. The procedure, abridged:
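Enzyme preincubated 5 min with compound (11-point 3-fold series, duplicate), then ULight-JAK-1 (Tyr1023) peptide and ATP added at 4× stocks of 400 nM and 600 μM; 120 min reaction at room temperature. PT66 antibody TR-FRET read after 60 min; IC50 fitted from inhibition rates.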
Background: Time-resolved FRET reads energy transfer from a long-lived donor to a nearby acceptor.

Assay [2] has as its target Ba/F3 HER2 A775_G776insYVMA cells (Homo sapiens, UniProt P04626, DUP772-775, cells depend on it). The assay is described as follows: Inhibition of cell proliferation, CTG method, Ba/F3 HER2 A775_G776insYVMA. It counts as cell-based. To be noted: 72 hours, read-out: Ba/F3 HER2 A775-G776insYVMA IC50. The procedure, abridged:
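Ba/F3 HER2 A775_G776insYVMA cells in RPMI1640 with 10% FBS were plated at 3000 cells/well and treated directly with compound (top 10 μM, 4-fold, 9 concentrations, duplicates).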

T1 sequence (P04626 23-1255): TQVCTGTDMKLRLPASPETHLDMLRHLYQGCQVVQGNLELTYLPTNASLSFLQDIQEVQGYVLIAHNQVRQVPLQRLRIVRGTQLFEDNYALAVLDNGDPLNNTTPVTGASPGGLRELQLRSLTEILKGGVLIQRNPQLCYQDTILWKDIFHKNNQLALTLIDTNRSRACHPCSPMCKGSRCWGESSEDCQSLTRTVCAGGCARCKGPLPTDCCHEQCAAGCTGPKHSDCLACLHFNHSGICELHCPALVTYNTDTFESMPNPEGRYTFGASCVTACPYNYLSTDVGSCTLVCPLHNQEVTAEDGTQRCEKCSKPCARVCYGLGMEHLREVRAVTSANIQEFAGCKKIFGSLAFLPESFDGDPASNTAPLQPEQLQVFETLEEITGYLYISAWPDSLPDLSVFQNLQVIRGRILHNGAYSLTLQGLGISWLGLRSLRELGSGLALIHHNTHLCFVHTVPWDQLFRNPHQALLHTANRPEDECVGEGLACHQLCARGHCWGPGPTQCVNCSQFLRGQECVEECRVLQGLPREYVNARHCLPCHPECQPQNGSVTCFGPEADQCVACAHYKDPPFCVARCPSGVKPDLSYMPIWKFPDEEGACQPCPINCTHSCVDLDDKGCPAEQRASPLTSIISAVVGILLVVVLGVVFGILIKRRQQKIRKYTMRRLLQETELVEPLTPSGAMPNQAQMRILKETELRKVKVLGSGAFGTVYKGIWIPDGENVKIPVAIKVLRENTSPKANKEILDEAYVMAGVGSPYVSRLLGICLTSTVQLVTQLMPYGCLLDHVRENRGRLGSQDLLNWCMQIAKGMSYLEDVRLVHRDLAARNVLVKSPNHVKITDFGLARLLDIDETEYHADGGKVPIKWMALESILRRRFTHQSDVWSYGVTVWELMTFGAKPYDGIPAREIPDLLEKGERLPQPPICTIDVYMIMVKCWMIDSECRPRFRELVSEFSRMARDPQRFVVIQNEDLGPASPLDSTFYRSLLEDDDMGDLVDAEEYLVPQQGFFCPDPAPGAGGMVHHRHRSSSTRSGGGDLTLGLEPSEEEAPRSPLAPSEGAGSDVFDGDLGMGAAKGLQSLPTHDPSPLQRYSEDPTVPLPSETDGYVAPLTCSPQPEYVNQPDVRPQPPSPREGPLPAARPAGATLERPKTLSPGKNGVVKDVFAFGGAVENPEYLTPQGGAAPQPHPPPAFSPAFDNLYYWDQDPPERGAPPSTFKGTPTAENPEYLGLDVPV
EGFR^WT kinase, sequence (P00533 25-1210): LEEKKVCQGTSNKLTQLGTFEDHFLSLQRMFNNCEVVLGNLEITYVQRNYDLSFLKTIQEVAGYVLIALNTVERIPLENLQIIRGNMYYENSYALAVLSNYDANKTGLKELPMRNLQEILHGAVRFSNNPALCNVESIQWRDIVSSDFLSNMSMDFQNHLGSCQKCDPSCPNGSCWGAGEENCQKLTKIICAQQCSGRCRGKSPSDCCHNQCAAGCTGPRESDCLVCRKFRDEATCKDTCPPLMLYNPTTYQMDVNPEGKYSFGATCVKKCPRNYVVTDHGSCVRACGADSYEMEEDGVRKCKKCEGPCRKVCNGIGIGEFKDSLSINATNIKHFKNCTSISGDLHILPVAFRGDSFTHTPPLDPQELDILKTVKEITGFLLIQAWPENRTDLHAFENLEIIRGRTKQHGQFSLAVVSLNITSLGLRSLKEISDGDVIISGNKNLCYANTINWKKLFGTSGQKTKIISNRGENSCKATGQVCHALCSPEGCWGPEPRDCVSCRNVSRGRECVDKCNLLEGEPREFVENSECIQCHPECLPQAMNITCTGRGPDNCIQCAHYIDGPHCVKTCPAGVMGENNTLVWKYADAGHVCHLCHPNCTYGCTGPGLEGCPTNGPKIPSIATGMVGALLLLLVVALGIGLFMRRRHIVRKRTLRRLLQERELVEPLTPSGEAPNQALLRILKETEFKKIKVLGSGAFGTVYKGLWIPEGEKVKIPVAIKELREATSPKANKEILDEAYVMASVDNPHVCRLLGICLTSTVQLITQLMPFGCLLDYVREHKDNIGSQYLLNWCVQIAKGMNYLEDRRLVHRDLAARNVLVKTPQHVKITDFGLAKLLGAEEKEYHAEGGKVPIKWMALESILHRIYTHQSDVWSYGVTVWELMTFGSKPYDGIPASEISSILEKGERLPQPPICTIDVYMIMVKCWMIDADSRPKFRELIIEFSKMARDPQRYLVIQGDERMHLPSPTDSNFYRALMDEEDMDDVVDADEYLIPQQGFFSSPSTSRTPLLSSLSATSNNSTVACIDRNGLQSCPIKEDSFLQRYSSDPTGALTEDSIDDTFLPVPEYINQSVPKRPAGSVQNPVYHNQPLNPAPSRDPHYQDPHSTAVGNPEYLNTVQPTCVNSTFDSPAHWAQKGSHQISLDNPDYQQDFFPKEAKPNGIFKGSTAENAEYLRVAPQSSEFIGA
Ba/F3 HER2 A775_G776insYVMA cells, sequence (P04626 with tags, fused parts or gaps DUP772-775): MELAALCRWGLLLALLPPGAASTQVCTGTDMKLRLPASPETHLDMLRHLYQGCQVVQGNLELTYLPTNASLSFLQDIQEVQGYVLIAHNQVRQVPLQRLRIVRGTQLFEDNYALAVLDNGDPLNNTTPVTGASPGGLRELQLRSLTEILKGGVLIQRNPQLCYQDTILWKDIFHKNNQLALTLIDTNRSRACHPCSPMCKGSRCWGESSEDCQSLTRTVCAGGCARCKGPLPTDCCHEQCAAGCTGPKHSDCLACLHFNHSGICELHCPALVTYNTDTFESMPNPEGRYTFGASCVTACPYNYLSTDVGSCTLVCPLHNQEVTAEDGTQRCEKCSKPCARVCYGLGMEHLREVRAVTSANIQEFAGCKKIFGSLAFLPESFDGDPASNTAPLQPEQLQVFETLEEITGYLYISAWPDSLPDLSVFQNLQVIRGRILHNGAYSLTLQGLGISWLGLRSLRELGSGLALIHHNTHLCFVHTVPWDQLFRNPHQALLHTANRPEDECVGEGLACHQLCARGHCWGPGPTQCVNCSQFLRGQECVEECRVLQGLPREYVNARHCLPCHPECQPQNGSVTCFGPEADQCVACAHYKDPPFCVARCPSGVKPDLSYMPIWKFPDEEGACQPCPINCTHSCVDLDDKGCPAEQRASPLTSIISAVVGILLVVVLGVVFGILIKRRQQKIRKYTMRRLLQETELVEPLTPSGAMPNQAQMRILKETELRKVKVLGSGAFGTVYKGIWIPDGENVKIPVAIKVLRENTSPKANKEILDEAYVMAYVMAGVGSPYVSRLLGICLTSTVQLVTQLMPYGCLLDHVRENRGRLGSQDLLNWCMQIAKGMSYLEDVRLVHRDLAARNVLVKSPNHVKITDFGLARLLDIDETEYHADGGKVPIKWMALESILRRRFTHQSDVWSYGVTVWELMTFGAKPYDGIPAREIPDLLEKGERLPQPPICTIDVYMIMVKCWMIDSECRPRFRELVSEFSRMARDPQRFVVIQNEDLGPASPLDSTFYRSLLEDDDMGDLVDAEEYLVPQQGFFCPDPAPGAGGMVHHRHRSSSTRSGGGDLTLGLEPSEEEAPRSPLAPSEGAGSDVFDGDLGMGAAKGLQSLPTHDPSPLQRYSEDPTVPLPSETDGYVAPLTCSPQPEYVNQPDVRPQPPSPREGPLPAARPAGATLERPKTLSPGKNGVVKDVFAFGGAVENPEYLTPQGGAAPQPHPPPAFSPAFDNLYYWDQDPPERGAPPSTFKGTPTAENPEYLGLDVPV
Ba/F3 EGFR D770_N771insSVD cells, sequence (P00533 with tags, fused parts or gaps DUP768-770): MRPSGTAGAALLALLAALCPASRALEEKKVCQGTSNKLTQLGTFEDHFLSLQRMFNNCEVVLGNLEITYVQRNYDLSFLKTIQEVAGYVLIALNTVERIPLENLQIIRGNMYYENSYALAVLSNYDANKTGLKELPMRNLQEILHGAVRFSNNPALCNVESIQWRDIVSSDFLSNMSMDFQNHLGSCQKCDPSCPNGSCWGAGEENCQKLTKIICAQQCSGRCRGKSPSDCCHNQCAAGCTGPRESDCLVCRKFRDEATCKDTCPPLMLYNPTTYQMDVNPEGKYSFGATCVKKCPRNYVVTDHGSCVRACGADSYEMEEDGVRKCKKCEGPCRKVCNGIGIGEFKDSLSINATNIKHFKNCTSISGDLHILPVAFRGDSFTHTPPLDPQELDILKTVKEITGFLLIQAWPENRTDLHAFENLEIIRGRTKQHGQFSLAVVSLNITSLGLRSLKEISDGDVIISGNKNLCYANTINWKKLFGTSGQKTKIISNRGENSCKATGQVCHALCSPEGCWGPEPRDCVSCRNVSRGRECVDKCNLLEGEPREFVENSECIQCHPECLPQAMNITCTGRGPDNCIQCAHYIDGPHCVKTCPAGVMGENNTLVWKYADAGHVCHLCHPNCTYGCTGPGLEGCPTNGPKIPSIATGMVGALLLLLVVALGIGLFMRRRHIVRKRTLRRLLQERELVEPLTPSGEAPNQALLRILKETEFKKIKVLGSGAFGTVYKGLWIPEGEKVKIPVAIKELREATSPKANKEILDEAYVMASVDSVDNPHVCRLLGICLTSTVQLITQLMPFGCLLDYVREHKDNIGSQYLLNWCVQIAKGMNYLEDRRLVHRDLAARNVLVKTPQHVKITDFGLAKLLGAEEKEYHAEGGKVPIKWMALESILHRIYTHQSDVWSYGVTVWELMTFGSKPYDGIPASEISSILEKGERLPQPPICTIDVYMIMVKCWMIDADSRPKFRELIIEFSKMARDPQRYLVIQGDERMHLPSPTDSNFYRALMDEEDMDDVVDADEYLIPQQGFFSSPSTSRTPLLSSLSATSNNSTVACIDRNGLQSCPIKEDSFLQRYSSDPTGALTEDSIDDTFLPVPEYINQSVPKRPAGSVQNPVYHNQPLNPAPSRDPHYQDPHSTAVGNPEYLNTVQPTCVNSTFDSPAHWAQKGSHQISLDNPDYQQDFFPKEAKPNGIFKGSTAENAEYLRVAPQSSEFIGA

Consider `CCN1CCC[C@@H]1/C=C/C(=O)Nc1ccc2ncnc(Nc3ccc(OCc4ccccn4)c(Cl)c3)c2c1OC` [Example 29, (R,E)-N-(4-((3-chloro-4-(pyridin-2-ylmethoxy)phenyl)amino)-5-methoxyquinazolin-6-yl)-3-(1-ethylpyrrolidin-2-yl)acrylamide], for which the IC50 on HER2 kinase and on EGFR^WT kinase was below 10 nM throughout. Also, the GI50 in assay [1] is 10 to 100 nM; in assay [2], below 1 nM.

With `COCCCOc1c(NC(=O)/C=C/[C@H]2CCCN2C)ccc2ncnc(Nc3ccc(OCc4ccccn4)c(Cl)c3)c12` [Example 9, (R,E)-N-(4-((3-chloro-4-(pyridin-2-ylmethoxy)phenyl)amino)-5-(3-methoxypropoxy)quinazolin-6-yl)-3-(1-methylpyrrolidin-2-yl)acrylamide], the 50% inhibitory concentration (IC50) at HER2 kinase and against EGFR^WT kinase was below 10 nM in each case. The GI50 in assay [1] lay in the range of 10 to 100 nM; in assay [2] it was 1 to 5 nM.

As for `COc1c(NC(=O)/C=C/[C@H]2CCCN2C)ccc2ncnc(Nc3ccc(OCc4ccccn4)c(Cl)c3)c12` [Example 4, (R,E)-N-(4-((3-chloro-4-(pyridin-2-ylmethoxy)phenyl)amino)-5-methoxyquinazolin-6-yl)-3-(1-methylpyrrolidin-2-yl)acrylamide], the half-maximal inhibitory concentration (IC50) on HER2 kinase and against EGFR^WT kinase was below 10 nM in each case. Moreover, the GI50 is 10 to 100 nM in assay [1] and below 1 nM in assay [2].

What is called IC50 is the concentration at which inhibition is half-maximal.

Values taken from patent US20240246934A1, “QUINAZOLINE-BASED COMPOUND, COMPOSITION, AND APPLICATION OF QUINAZOLINE-BASED COMPOUND” (BEIJING SCITECH-MQ PHARMACEUTICALS LIMITED, priority 2021, published 2024).
